Results reported in patent publication US20050033056A1, “Hydroxylated indole derivatives and uses thereof” (priority 2001, published 2005).

How the values were obtained:
CYP2D6 = CYP2D6 (Homo sapiens, UniProt P10635); test: Compound 1 metabolism / metabolite formation by recombinant CYP2D6; type: in vitro ADME; parameters: purchased Gentest Corp. (Woburn, Mass.); host or cells: insect cells (microsomal preparation)
Protocol: (§1) The metabolism of Compound 1 was determined by the disappearance of Compound 1 or the appearance of Compound 1 metabolites in reaction mixtures as compared to respective controls. Compound 1 was incubated in the reconstituted in vitro reaction systems containing pooled human liver S9 fractions, microsomal preparations, or recombinant hepatic CYP forms, including CYP1A2, CYP2C9, CYP2C19, CYP2D6, CYP2E1, and CYP3A4. The reaction mixture (total volume of 250 μL) contained 0.5 mg of liver microsomal protein, 50 or 25 pmol of recombinant CYP, and Compound 1 (50-80 μM) in 50 mM Tris buffer containing 15 mM MgCl2 (pH 7.4). After incubating at 37° C. with gentle shaking for 1 minute, the reaction was initiated by adding 25 μL of NADPH solution (20 mg/mL), and was carried out for 1 hour. The reaction was terminated by quickly cooling the test tube on ice, followed by the addition of an equal volume of 100% methanol. The samples were centrifuged in a desktop centrifuge at 14,000 rpm for 5 minutes, and the supernatants were filtered through syringe filters (13 mm, 0.45 μm). The filtrates were subjected to analysis using LC/MS (ion trap) or LC/MS/MS.
1. LC/MS (LCQ ion trap mass spectrometer, Finnigan Corp., San Jose, Calif.): Hewlett Packard 1100 HPLC system (Waldbronn, Germany) consisted of a binary pump, an autosampler, a column compartment unit, and an online variable wavelength UV detector (VWD). The detector was monitored at 270 nm, which is the UVmax of Compound 1 predetermined by scanning between 225-400 nm using a photodiode array detector (PDA). The metabolites were separated on a Hewlett Packard Eclipse C18 column (150×2.1 mm). The mobile phases were 10 nmM ammonium acetate at pH 4.8 (A) and acetonitrile (B). The gradient (B) was 10% (0-6 minutes), 22% (12-22 minutes), 90% (25-30 minutes), and 10% (31 minutes and after). The flow rate was 0.25 mL/minute. Software Navigator (Version 1.2, Finnigan Corp.) was used to control the HPLC and MS and to acquire the data. […]

CYP2C19 = CYP2C19 (Homo sapiens, UniProt P33261); test: Compound 1 metabolism / metabolite formation by recombinant CYP2C19; type: in vitro ADME; parameters: purchased Gentest Corp. (Woburn, Mass.); host or cells: insect cells (microsomal preparation)
Protocol: as §1
1. LC/MS (LCQ ion trap mass spectrometer, Finnigan Corp., San Jose, Calif.): Hewlett Packard 1100 HPLC system (Waldbronn, Germany) consisted of a binary pump, an autosampler, a column compartment unit, and an online variable wavelength UV detector (VWD). The detector was monitored at 270 nm, which is the UVmax of Compound 1 predetermined by scanning between 225-400 nm using a photodiode array detector (PDA). The metabolites were separated on a Hewlett Packard Eclipse C18 column (150×2.1 mm). The mobile phases were 10 nmM ammonium acetate at pH 4.8 (A) and acetonitrile (B). The gradient (B) was 10% (0-6 minutes), 22% (12-22 minutes), 90% (25-30 minutes), and 10% (31 minutes and after). The flow rate was 0.25 mL/minute. Software Navigator (Version 1.2, Finnigan Corp.) was used to control the HPLC and MS and to acquire the data. The MS was operated at positive electrospray ionization (ESI) with 5.2 kV ionization potential and 220° C. heated capillary temperature. The product ion spectra were generated under 24V collision energy, which was optimized for the fragmentation of Compound 1.
2. LC/MS/MS (SCIEX API2000 triple quadrupole mass spectrometer, PE Biosystem, Foster City, Calif.): The same HPLC system described above was coupled with a tandem mass spectrometer. The metabolites were separated on a Sulpelco Discovery C18 column (150×2.1 mm), and the mobile phase described previously was run at 1.0 mL/min with a 1:10 split. The gradient (B) was 20% (0-6 minutes), 60% (14-18 minutes), 95% (20-24 minutes), and 20% (25 minutes and after). The operation of the HPLC and the MS/MS was controlled by MacChrom (Version 1.6, PE Biosystem). […]

[1] = approximately 50 μM of Compound 1

CYP2D6, sequence (P10635 whole entry): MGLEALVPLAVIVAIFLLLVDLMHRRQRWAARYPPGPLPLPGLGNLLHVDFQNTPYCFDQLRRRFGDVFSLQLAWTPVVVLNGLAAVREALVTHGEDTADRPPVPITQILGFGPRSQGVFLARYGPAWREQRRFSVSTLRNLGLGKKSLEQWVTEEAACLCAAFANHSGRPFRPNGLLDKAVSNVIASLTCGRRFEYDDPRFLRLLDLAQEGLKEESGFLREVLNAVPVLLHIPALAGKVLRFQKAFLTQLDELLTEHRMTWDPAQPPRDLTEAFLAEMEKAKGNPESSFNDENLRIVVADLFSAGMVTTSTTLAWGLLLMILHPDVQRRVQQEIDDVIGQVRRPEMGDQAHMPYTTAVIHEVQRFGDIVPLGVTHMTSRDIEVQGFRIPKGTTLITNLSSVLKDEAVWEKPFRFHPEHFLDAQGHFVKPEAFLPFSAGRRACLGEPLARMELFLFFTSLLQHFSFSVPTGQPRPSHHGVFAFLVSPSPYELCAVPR
CYP2C19, sequence (P33261 whole entry): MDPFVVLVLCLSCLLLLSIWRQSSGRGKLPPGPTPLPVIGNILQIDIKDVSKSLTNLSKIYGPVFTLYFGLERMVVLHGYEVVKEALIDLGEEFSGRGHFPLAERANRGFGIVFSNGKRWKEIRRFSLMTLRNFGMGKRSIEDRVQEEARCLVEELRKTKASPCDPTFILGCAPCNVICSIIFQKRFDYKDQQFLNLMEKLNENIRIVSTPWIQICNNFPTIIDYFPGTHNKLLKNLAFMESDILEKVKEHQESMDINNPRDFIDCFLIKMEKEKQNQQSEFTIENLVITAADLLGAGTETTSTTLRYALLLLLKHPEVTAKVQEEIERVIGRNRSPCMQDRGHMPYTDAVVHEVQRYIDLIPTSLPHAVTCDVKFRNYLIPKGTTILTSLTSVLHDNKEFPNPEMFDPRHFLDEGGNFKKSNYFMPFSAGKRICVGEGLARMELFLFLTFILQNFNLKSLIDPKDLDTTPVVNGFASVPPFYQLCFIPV

`CNC(=O)Cc1ccc2ccn(C3CCN(CCc4ccccc4F)CC3)c2c1` [Compound 1, N-methyl-[1-[1-(2-fluorophenethyl)piperidine-4-yl]-1H-indol-6-yl] acetamide] was tested, and the “metabolism of Compound 1 by CYP2D6 (in words)” value (CYP2D6; [1]) was “metabolized”, the “Rel. Amount (%)” value (CYP2D6; recombinant CYP2D6, estimated by UV absorbance at 270 nm, metabolite formed or Compound 1 left after 1 hour with NADPH) was 78% and the “metabolism of Compound 1 by CYP2C19 (in words)” value (CYP2C19; [1]) was “metabolized”. For the same compound, the “Rel. Amount (%)” value (CYP2C19; recombinant CYP2C19, estimated by UV absorbance at 270 nm, metabolite formed or Compound 1 left after 1 hour with NADPH) was 42%.
